Assay [1] concerns the target T1, hA1AR H78L^3.23 (Homo sapiens, UniProt P30542, H78L).
T1 sequence (P30542 1-326 H78L): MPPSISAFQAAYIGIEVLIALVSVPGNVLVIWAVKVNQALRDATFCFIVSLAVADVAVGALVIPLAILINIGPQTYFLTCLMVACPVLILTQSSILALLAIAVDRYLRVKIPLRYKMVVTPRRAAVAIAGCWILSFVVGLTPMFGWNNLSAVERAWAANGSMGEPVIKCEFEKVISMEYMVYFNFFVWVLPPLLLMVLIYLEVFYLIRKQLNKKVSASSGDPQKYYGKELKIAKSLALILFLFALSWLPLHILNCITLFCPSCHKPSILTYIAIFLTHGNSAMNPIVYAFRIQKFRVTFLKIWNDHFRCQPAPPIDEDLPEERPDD
As to the kind of experiment: yeast liquid growth assay. In kind it is cell-based. Conditions: result in words. The method, then:
The plasmids, pDT-PGK_hA1AR, containing either wild type or mutated hA1AR were transformed into a MMY24 S. cerevisiae strain following the lithium acetate procedure.
In order to characterize the mutant hA1ARs, liquid growth assays in 96-well plates were performed to obtain concentration–growth curves as previously described. […] The overnight cultures were then diluted to 40,000 cells/mL (OD600 ≈ 0.02) in a selective medium without uracil, leucine, and histidine (YNB-ULH). For the determination of constitutive activity, 50 μL of yeast cells and 150 μL of YNB-ULH medium containing different concentrations of 3-AT and 0.8 IU/mL ADA were then added to each well. To obtain concentration–growth curves, 2 μL of various concentrations of ligands, 50 μL of yeast cells, and 150 μL of YNB-ULH medium containing 7 mM 3-AT and 0.8 IU/mL ADA were then added to each well. After incubation at 30 °C for 35 h in a Genios plate reader (TECAN, Zürich, Switzerland) with shaking for 1 min at 300 rpm every 10 min, the optical density was measured at a wavelength of 595 nm, which represented the level of yeast cell growth.
(§1) All experimental data were analyzed by GraphPad Prism 7.0 or 8.0 (GraphPad Software Inc., San Diego, CA, USA). Data from yeast liquid growth and [^35S]GTPγS binding assays were analyzed by non-linear regression using “log (agonist) vs. response (three parameters)” or “log (inhibitor) vs. response (three parameters)” to obtain potency (EC50), inhibitory potency (IC50), and efficacy (Emax or Imax) values. The radioligand displacement curves were obtained from a statistically preferred one-site or two-site binding model. pKi values were calculated from pIC50 values using the Cheng–Prusoff equation, where KD values were obtained from the homologous competition assays from this study and calculated by non-linear regression using “one site–homologous” [62].

The next assay deals with T2, hA1AR G279S^7.44 (Homo sapiens, UniProt P30542, G279S).
T2 sequence (P30542 1-326 G279S): T1 sequence (P30542 1-326 H78L) with L78H, G279S
Conditions: [35S]GTPγS; CPA at EC80; ratio over basal activity of wild type or mutant hA1AR. The procedure:
(§2) Transient transfection of CHO cells with wild type or mutated hA1AR plasmid constructs was performed using a polyethylenimine (PEI) method. Cells were seeded in 10-cm culture dishes to achieve 50–60% confluency 24 h prior to transfection. On the day of transfection, cells were transfected with a PEI: DNA ratio of 3:1 and a plasmid DNA amount of 10 μg/dish. Moreover, 24 h post-transfection, the medium was refreshed, and 48 h after transfection, cells were collected and membranes were prepared as previously described. Membranes were aliquoted in 250 or 100 μL and stored at −80 °C. Membrane protein concentrations were determined using the BCA method.
(§3) [^35S]GTPγS binding assays were adapted from a previously published method. […] Then, 20 µL of [^35S]GTPγS (final concentration of 0.3 nM) was added to each well, followed by 90 min of incubation at 25 °C. Incubations were terminated and filter-bound radioactivity was measured as described above.
as §1
For orientation: Binding of GTPγS marks nucleotide exchange on a G protein.

For a further assay, the target named is T3, wild type hA1AR (Homo sapiens, UniProt P30542).
T3 sequence (P30542 1-326): T1 sequence (P30542 1-326 H78L) with L78H
Conditions: [35S]GTPγS; CPA at EC80; ratio over basal activity of wild type or mutant hA1AR. The procedure:
as §2, §3, §1

Assay [2] addresses T1, hA1AR H78L^3.23. Conditions: [35S]GTPγS; CPA at EC80; ratio over basal activity of wild type or mutant hA1AR. The procedure:
as §2, §3, §1

A further assay concerns the target T4, hA1AR S246T^6.47 (Homo sapiens, UniProt P30542, S246T).
T4 sequence (P30542 1-326 S246T): T1 sequence (P30542 1-326 H78L) with L78H, S246T
The note with it: [35S]GTPγS; CPA at EC80; ratio over basal activity of wild type or mutant hA1AR. The method, then:
as §2, §3, §1

Another assay addresses T5, hA1AR L134F^4.52 (Homo sapiens, UniProt P30542, L134F).
T5 sequence (P30542 1-326 L134F): T1 sequence (P30542 1-326 H78L) with L78H, L134F
The note with it: [35S]GTPγS; CPA at EC80; ratio over basal activity of wild type or mutant hA1AR. The method, then:
as §2, §3, §1

In the next assay the target is T6, hA1AR W188C^5.46 (Homo sapiens, UniProt P30542, W188C).
T6 sequence (P30542 1-326 W188C): T1 sequence (P30542 1-326 H78L) with L78H, W188C
Conditions: [35S]GTPγS; CPA at EC80; ratio over basal activity of wild type or mutant hA1AR. The procedure:
as §2, §3, §1

Experimental findings from paper PMC9229843, “Cancer-Related Somatic Mutations in Transmembrane Helices Alter Adenosine A1 Receptor Pharmacology” (Molecules, 2022) are described below.

Numbering of substitutions follows the chain as printed.

`CCCn1c(=O)c2[nH]c(C3CCCC3)nc2n(CCC)c1=O` [DPCPX, 8-cyclopentyl-1,3-dipropylxanthine]: on hA1AR H78L^3.23 [1], the “reduction of constitutive activity by inverse agonist” value is given as “not reduced”. Moreover, the Imax on hA1AR G279S^7.44 turned out to be 0.65 ± 0.08; on wild type hA1AR, 0.67 ± 0.05; at hA1AR H78L^3.23 [2] it was 0.83 ± 0.03; on hA1AR S246T^6.47, 0.70 ± 0.05; at hA1AR L134F^4.52, 0.68 ± 0.01; at hA1AR W188C^5.46 it was 0.74 ± 0.03.
